Measurements from patent US20140051729A1, “COMPOSITIONS AND METHODS FOR TREATING DEGENERATIVE MUSCLE CONDITIONS” (University of Washington, priority 2011, published 2014).

Tested on: mdx mice
Test: Histopathology of CTX injured and uninjured muscles of aged mdx mice after IP THI
Assay type: in vivo, mouse
Protocol: Muscle repair in mdx mice become impaired during aging resulting in muscle atrophy and dystrophy. The effects of THI on the histopathology were assessed in injured and uninjured muscles from two groups of aged mdx mice (n=6, 11 month-old females and n=7, 16 month-old males). In this experiment, right TAs and quadriceps muscles were uninjured, while left counterparts were injured using CTX. The mdx mice were injected with THI, or PBS as a vehicle control, immediately following injury with CTX 5 times during a 3-day period. Injured and uninjured muscles were harvested 18 days post injury to survey the effects of THI on muscle repair. […] Injured muscles were lighter than uninjured muscles in vehicle treated mice, an approximate weight loss of 20% (*p<0.05).
The left TAs and quadriceps of six, 10 month old female mdx4cv mice were injected with 50 μl and 100 μl CTX respectively. Three mice were injected IP with 0.15 mg/ml THI in PBS, twice daily (injections 8 hours apart) immediately after and for the first three days following injury. The three remaining animals were injected IP with PBS as vehicle controls. 1% Evans Blue dye was injected IV on day 17 post CTX, to label persistently damaged (dye permeable) muscle fibers. Animals were euthanized 18 days post injury and muscles were frozen under liquid nitrogen cooled isopentane in optimal cutting temperature (OCT). All myofibers were measured for the minimum diameters on the cross-sections of mouse quadriceps muscle using image J software. 750˜850 myofibers were counted for three mice treated with PBS or THI with or without CTX injury.
All mouse muscles were frozen directly in OCT with liquid nitrogen cooled in isopentane and sections of 8 μm thickness were obtained. Tissue for x-gal staining, was fixed for 10 min with 2% formaldehyde/0.2% glutaraldehyde and incubated overnight at 37° C. with staining buffer (PBS with 1 mg/ml x-gal, 5 mM potassium ferricyanide, 5 mM potassium ferrocyanide, and 2 mM […] (all from Fisher). Oil Red-O and Picrosirius red staining were done following established protocols. For eMyHC staining, tissue was first fixed with 2% formaldehyde for 5 min, treated with streptavidin/avidin blocking kit (Vector labs), and blocked with IgG block from M.O.M kit (Vector Labs) for 5 hrs at 4° C. Following blockade, concentrated mouse anti-eMyHC (clone F1.652 received at 357 μg/ml IgG) obtained from the developmental studies hybridoma bank (DHSB, University of Iowa) was administered at 1:400 dilution, overnight at 4° C. The remainder of the staining was done following mouse-on-mouse (M.O.M) kit staining instructions. For laminin staining tissue was also fixed with 2% formaldehyde for 5 min, and then treated with polyclonal rabbit anti-laminin (Sigma) for 1 hr at a 1:400 dilution in PBS+1% BSA. Following washes, Alexa Fluor 488 conjugated goat anti-rabbit IgG (Invitrogen) was administered at 1:800 dilution for 1 hr. Controls omitting the primary antibody were included with all staining. Staining quantifications were all done using ImageJ v1.40 (Wayne Rasband, NIH) cell counter plugin (Kurt De Vos, University of Sheffield). Calculations, statistics, and graphs were generated with Microsoft Excel. Brightfield photographs were captured using either a Fisher Micromaster digital inverted or upright microscopes with Micron software. Fluorescent photographs were captured with a monochromatic camera using a Zeiss Axiovert 200 microscope. Individual fluorescent channels were colored and merged using Adobe Photoshop CS2. Brightness contrast levels were adjusted to increase visibility and reduce background in most photographs.
Both stainings were done using freshly frozen mdx muscles. Pax7 staining was done as outlined by Clever et al., with slight modification (Clever J L, et al. Am J Physiol Cell Physiol. 2010; 298:C1087-C1099). Sections were fixed overnight in 4% formaldehyde (from PFA powder) at 4° C. […]

[1] = 11MO and 16MO mdx mice, Oil Red-O
[2] = 11MO mdx mice, dye injected day 17 post injury
[3] = 11 month-old mdx mice, vs vehicle
[4] = aged mdx mice, 18 days post CTX injury, vs vehicle

SMILES: CC(=O)c1ncc([C@@H](O)[C@H](O)[C@H](O)CO)[nH]1 [THI, 1-[5-[(1R,2S,3R)-1,2,3,4-tetrahydroxybutyl]-1H-imidazol-2-yl]-ethanone]
- ratio of fat deposition in injured TAs over uninjured contralateral TAs [1]: significantly reduced in THI treated vs. control animals in 11MO (*) but not 16 MO mdx mice
- ratio of injured over uninjured fat deposits in quadriceps [1]: significantly reduced in 16MO (#) but not in the 11MO mdx mice
- Evans Blue positive fibers in injured quadriceps over entire cross-sectional area [2]: < 5
- Evans Blue positive fibers in uninjured contralateral quadriceps [2]: almost zero
- mean number of satellite cells (Pax7+ nuclei) in limb muscles (TAs and Quadriceps) [3]: significant increase
- minimum fiber diameter, uninjured and injured quadriceps and diaphragms [3]: significant increase
- ratio of dry weight of CTX injured over uninjured quadriceps, normalized to body weight (16 month-old mdx males, 18 days post injury): ratio close to one
- muscle fiber size, uninjured quadriceps (16 month-old mdx males, vs vehicle): significant increase
- overall histological muscle morphology of injured muscles (aged mdx mice, 18 days post CTX injury): more organized
- average fat deposition in injured TAs (Oil Red-O) [4]: significantly lower average fat deposition
- fibrosis in injured TAs and quadriceps muscles (Picrosirius Red) [4]: significantly reduced fibrosis
